Measured values published in patent US9499550B2 (BRISTOL-MYERS SQUIBB COMPANY, priority 2012, dated 2016).
Where two headings read alike, the source gives them in different places.

What was measured:
[1] = test system: HCV genotype 1a (H77 strain) replicon in HUH-7 cells; experiment: HCV replicon luciferase reporter assay, genotype 1a; assay type: cell-based; details: Hepatitis C virus, Huh-7, 72 h, HCV genotype 1a replicon luciferase assay, 3 days incubation, range class, read-out: LE_1a (EC50, range)
Outline: (§1)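 Replicon inhibition for both genotypes was measured as Renilla luciferase signal (EnduRen, 7.5 μM final, 2 h) after 3-day, 37° C exposure of replicon-bearing HUH-7 cells in 4% FCS DMEM, 0.5% DMSO. The 1b construct carries S1179I; the 1a H77 construct carries P1496L and S2204I. Twenty-point, 3-fold dilutions were fitted four-parametrically for EC50, and CC50 was taken from multiplexed Cell Titer-Blue.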

[2] = test system: HCV genotype 1b (Con1) replicon in HUH-7 cells; experiment: HCV replicon luciferase reporter assay, genotype 1b; assay type: cell-based; details: Hepatitis C virus, Huh-7, 72 h, HCV genotype 1b replicon luciferase assay, 3 days incubation, range class, read-out: LE_1b (EC50, range)
Outline: as §1

COCCOc1cc2c(Cl)cccc2c(O[C@@H]2C[C@H]3C(=O)N[C@]4(C(=O)NS(=O)(=O)C5(C)CC5)C[C@H]4/C=C\CC[C@@H](C)C[C@@H](C)[C@H](NC(=O)OC(C)(C)C(C)(F)F)C(=O)N3C2)n1 [Compound 1116, 3,3-difluoro-2-methylbutan-2-yl((2R,6S,7R,9R,13aS,14aR,16aS,Z)-2-((5-chloro-3-(2-methoxyethoxyl)isoquinolin-1-yl)oxy)-7,9-dimethyl-14a-(((1-methylcyclopropyl)sulfonyl)carbamoyl)-5,16-dioxo-1,2,3,5,6,7,8,9,10,11,13a,14,14a,15,16,16a-hexadecahydrocyclopropa[e]pyrrolo[1,2-a][1,4]diazacyclopentadecin-6-yl)carbamate]
EC50 [1]: < 5.46 nM
EC50 [2]: < 5.46 nM

COCCOc1cc2c(Cl)cccc2c(O[C@@H]2C[C@H]3C(=O)N[C@]4(C(=O)NS(=O)(=O)C5(C)CC5)C[C@H]4/C=C\CC[C@H](C)C[C@@H](C)[C@H](NC(=O)OC(C)(C)C)C(=O)N3C2)n1 [Compound 1117, tert-butyl ((2R,6S,7R,9S,13aS,14aR,16aS,Z)-2-((5-chloro-3-(2-methoxyethoxyl)isoquinolin-1-yl)oxy)-7,9-dimethyl-14a-(((1-methylcyclopropyl)sulfonyl)carbamoyl)-5,16-dioxo-1,2,3,5,6,7,8,9,10,11,13a,14,14a,15,16,16a-hexadecahydrocyclopropa[e]pyrrolo[1,2-a][1,4]diazacyclopentadecin-6-yl)carbamate]
EC50 [1]: < 5.46 nM
EC50 [2]: < 5.46 nM

COCCOc1cc2c(Cl)cccc2c(O[C@@H]2C[C@H]3C(=O)N[C@]4(C(=O)NS(=O)(=O)C5(C)CC5)C[C@H]4/C=C\CC[C@@H](C)C[C@@H](C)[C@H](NC(=O)OC(C)(C)C)C(=O)N3C2)n1 [Compound 1118, tert-butyl ((2R,6S,7R,9R,13aS,14aR,16aS,Z)-2-((5-chloro-3-(2-methoxyethoxyl)isoquinolin-1-yl)oxy)-7,9-dimethyl-14a-(((1-methylcyclopropyl)sulfonyl)carbamoyl)-5,16-dioxo-1,2,3,5,6,7,8,9,10,11,13a,14,14a,15,16,16a-hexadecahydrocyclopropa[e]pyrrolo[1,2-a][1,4]diazacyclopentadecin-6-yl)carbamate]
EC50 [1]: < 5.46 nM
EC50 [2]: < 5.46 nM

CC[C@@H]1C[C@@H](C)CC/C=C\[C@@H]2C[C@@]2(C(=O)NS(=O)(=O)C2(C)CC2)NC(=O)[C@@H]2C[C@@H](Oc3nc(OC)cc4cc(OC)ccc34)CN2C(=O)[C@H]1NC(=O)OC(C)(C)C(F)(F)F [Compound 1119, 1,1,1-trifluoro-2-methylpropan-2-yl((2R,6S,7R,9S,13aS,14aR,16aS,Z)-2-((3,6-dimethoxyisoquinolin-1-yl)oxy)-7-ethyl-9-methyl-14a-(((1-methylcyclopropyl)sulfonyl)carbamoyl)-5,16-dioxo-1,2,3,5,6,7,8,9,10,11,13a,14,14a,15,16,16a-hexadecahydrocyclopropa[e]pyrrolo[1,2-a][1,4]diazacyclopentadecin-6-yl)carbamate]
EC50 [1]: < 5.46 nM
EC50 [2]: < 5.46 nM

CC[C@@H]1C[C@H](C)CC/C=C\[C@@H]2C[C@@]2(C(=O)NS(=O)(=O)C2(C)CC2)NC(=O)[C@@H]2C[C@@H](Oc3nc(OC)cc4cc(OC)ccc34)CN2C(=O)[C@H]1NC(=O)OC(C)(C)C(F)(F)F [Compound 1120, 1,1,1-trifluoro-2-methylpropan-2-yl((2R,6S,7R,9R,13aS,14aR,16aS,Z)-2-((3,6-dimethoxyisoquinolin-1-yl)oxy)-7-ethyl-9-methyl-14a-(((1-methylcyclopropyl)sulfonyl)carbamoyl)-5,16-dioxo-1,2,3,5,6,7,8,9,10,11,13a,14,14a,15,16,16a-hexadecahydrocyclopropa[e]pyrrolo[1,2-a][1,4]diazacyclopentadecin-6-yl)carbamate]
EC50 [1]: < 5.46 nM
EC50 [2]: < 5.46 nM

CC[C@@H]1C[C@@H](C)CC/C=C\[C@@H]2C[C@@]2(C(=O)NS(=O)(=O)C2(C)CC2)NC(=O)[C@@H]2C[C@@H](Oc3nc(OC)cc4cc(OC)ccc34)CN2C(=O)[C@H]1NC(=O)OC1(C(F)(F)F)COC1 [Compound 1121, 3-(trifluoromethyl)oxetan-3-yl((2R,6S,7R,9S,13aS,14aR,16aS,Z)-2-((3,6-dimethoxyisoquinolin-1-yl)oxy)-7-ethyl-9-methyl-14a-(((1-methylcyclopropyl)sulfonyl)carbamoyl)-5,16-dioxo-1,2,3,5,6,7,8,9,10,11,13a,14,14a,15,16,16a-hexadecahydrocyclopropa[e]pyrrolo[1,2-a][1,4]diazacyclopentadecin-6-yl)carbamate]
EC50 [1]: < 5.46 nM
EC50 [2]: < 5.46 nM

CC[C@@H]1C[C@H](C)CC/C=C\[C@@H]2C[C@@]2(C(=O)NS(=O)(=O)C2(C)CC2)NC(=O)[C@@H]2C[C@@H](Oc3nc(OC)cc4cc(OC)ccc34)CN2C(=O)[C@H]1NC(=O)OC1(C(F)(F)F)COC1 [Compound 1122, 3-(trifluoromethyl)oxetan-3-yl ((2R,6S,7R,9R,13aS,14aR,16aS,Z)-2-((3,6-dimethoxyisoquinolin-1-yl)oxy)-7-ethyl-9-methyl-14a-(((1-methylcyclopropyl)sulfonyl)carbamoyl)-5,16-dioxo-1,2,3,5,6,7,8,9,10,11,13a,14,14a,15,16,16a-hexadecahydrocyclopropa[e]pyrrolo[1,2-a][1,4]diazacyclopentadecin-6-yl)carbamate]
EC50 [1]: < 5.46 nM
EC50 [2]: < 5.46 nM

CC[C@@H]1C[C@@H](C)CC/C=C\[C@@H]2C[C@@]2(C(=O)NS(=O)(=O)C2(C)CC2)NC(=O)[C@@H]2C[C@@H](Oc3nc(OC)cc4cc(OC)ccc34)CN2C(=O)[C@H]1NC(=O)OC(C)(C)C(C)(F)F [Compound 1123, 3,3-difluoro-2-methylbutan-2-yl((2R,6S,7R,9S,13aS,14aR,16aS,Z)-2-((3,6-dimethoxyisoquinolin-1-yl)oxy)-7-ethyl-9-methyl-14a-(((1-methylcyclopropyl)sulfonyl)carbamoyl)-5,16-dioxo-1,2,3,5,6,7,8,9,10,11,13a,14,14a,15,16,16a-hexadecahydrocyclopropa[e]pyrrolo[1,2-a][1,4]diazacyclopentadecin-6-yl)carbamate]
EC50 [1]: < 5.46 nM
EC50 [2]: < 5.46 nM

CC[C@@H]1C[C@H](C)CC/C=C\[C@@H]2C[C@@]2(C(=O)NS(=O)(=O)C2(C)CC2)NC(=O)[C@@H]2C[C@@H](Oc3nc(OC)cc4cc(OC)ccc34)CN2C(=O)[C@H]1NC(=O)OC(C)(C)C(C)(F)F [Compound 1124, 3,3-difluoro-2-methylbutan-2-yl((2R,6S,7R,9R,13aS,14aR,16aS,Z)-2-((3,6-dimethoxyisoquinolin-1-yl)oxy)-7-ethyl-9-methyl-14a-(((1-methylcyclopropyl)sulfonyl)carbamoyl)-5,16-dioxo-1,2,3,5,6,7,8,9,10,11,13a,14,14a,15,16,16a-hexadecahydrocyclopropa[e]pyrrolo[1,2-a][1,4]diazacyclopentadecin-6-yl)carbamate]
EC50 [1]: < 5.46 nM
EC50 [2]: < 5.46 nM

COc1ccc2c(O[C@@H]3C[C@H]4C(=O)N[C@]5(C(=O)NS(=O)(=O)C6(CF)CC6)C[C@H]5/C=C\CC[C@@H](C)C[C@@H](C)[C@H](NC(=O)OC(C)(C)C)C(=O)N4C3)nc(OC)cc2c1 [Compound 1125, tert-butyl ((2R,6S,7R,9R,13aS,14aR,16aS,Z)-2-((3,6-dimethoxyisoquinolin-1-yl)oxy)-14a-(((1-(fluoromethyl)cyclopropyl)sulfonyl)carbamoyl)-7,9-dimethyl-5,16-dioxo-1,2,3,5,6,7,8,9,10,11,13a,14,14a,15,16,16a-hexadecahydrocyclopropa[e]pyrrolo[1,2-a][1,4]diazacyclopentadecin-6-yl)carbamate]
EC50 [1]: < 5.46 nM
EC50 [2]: < 5.46 nM

COc1ccc2c(O[C@@H]3C[C@H]4C(=O)N[C@]5(C(=O)NS(=O)(=O)C6(CF)CC6)C[C@H]5/C=C\CC[C@H](C)C[C@@H](C)[C@H](NC(=O)OC(C)(C)C(F)(F)F)C(=O)N4C3)nc(OC)cc2c1 [Compound 1126, 1,1,1-trifluoro-2-methylpropan-2-yl((2R,6S,7R,9S,13aS,14aR,16aS,Z)-2-((3,6-dimethoxyisoquinolin-1-yl)oxy)-14a-(((1-(fluoromethyl)cyclopropyl)sulfonyl)carbamoyl)-7,9-dimethyl-5,16-dioxo-1,2,3,5,6,7,8,9,10,11,13a,14,14a,15,16,16a-hexadecahydrocyclopropa[e]pyrrolo[1,2-a][1,4]diazacyclopentadecin-6-yl)carbamate]
EC50 [1]: 4.82 to 103 nM
EC50 [2]: < 5.46 nM

COc1ccc2c(O[C@@H]3C[C@H]4C(=O)N[C@]5(C(=O)NS(=O)(=O)C6(CF)CC6)C[C@H]5/C=C\CC[C@@H](C)C[C@@H](C)[C@H](NC(=O)OC(C)(C)C(F)(F)F)C(=O)N4C3)nc(OC)cc2c1 [Compound 1127, 1,1,1-trifluoro-2-methylpropan-2-yl((2R,6S,7R,9R,13aS,14aR,16aS,Z)-2-((3,6-dimethoxyisoquinolin-1-yl)oxy)-14a-(((1-(fluoromethyl)cyclopropyl)sulfonyl)carbamoyl)-7,9-dimethyl-5,16-dioxo-1,2,3,5,6,7,8,9,10,11,13a,14,14a,15,16,16a-hexadecahydrocyclopropa[e]pyrrolo[1,2-a][1,4]diazacyclopentadecin-6-yl)carbamate]
EC50 [1]: < 5.46 nM
EC50 [2]: < 5.46 nM

COc1ccc2c(O[C@@H]3C[C@H]4C(=O)N[C@]5(C(=O)NS(=O)(=O)C6(CF)CC6)C[C@H]5/C=C\CC[C@@H](C)C[C@@H](C)[C@H](NC(=O)OC(C)(C)C(C)(F)F)C(=O)N4C3)nc(OC)cc2c1 [Compound 1128]
EC50 ([1]; GETYPE1A): < 5.46 nM
EC50 ([2]; GETYPE1B): < 5.46 nM
